Laboratory results as given in ChEMBL document CHEMBL1130322, “Anticancer and antiviral effects and inactivation of S-adenosyl-L-homocysteine hydrolase with 5'-carboxaldehydes and oximes synthesized from adenosine and sugar-modified analogues” (J Med Chem, 1997).
In brackets after ≈: the same amount, converted by molar mass.

Experiments:
[1] = target: T1, Adenosylhomocysteinase (Homo sapiens, UniProt P23526)
Target sequence in this assay (P23526 whole entry): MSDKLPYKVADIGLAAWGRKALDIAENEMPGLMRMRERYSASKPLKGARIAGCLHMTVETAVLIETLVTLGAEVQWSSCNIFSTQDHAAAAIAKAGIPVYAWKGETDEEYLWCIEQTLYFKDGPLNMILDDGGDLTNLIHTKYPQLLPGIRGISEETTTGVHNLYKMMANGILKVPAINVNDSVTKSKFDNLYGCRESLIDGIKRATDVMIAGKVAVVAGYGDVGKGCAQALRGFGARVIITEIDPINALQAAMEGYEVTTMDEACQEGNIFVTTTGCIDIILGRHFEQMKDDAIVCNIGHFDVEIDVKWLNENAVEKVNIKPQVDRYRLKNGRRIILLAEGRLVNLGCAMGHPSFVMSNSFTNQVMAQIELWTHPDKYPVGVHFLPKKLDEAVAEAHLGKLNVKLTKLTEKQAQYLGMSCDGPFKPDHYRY

[2] = target: T1, Adenosylhomocysteinase; remark: listed apart in the source
Target sequence in this assay (P23526 2-432 limits assumed): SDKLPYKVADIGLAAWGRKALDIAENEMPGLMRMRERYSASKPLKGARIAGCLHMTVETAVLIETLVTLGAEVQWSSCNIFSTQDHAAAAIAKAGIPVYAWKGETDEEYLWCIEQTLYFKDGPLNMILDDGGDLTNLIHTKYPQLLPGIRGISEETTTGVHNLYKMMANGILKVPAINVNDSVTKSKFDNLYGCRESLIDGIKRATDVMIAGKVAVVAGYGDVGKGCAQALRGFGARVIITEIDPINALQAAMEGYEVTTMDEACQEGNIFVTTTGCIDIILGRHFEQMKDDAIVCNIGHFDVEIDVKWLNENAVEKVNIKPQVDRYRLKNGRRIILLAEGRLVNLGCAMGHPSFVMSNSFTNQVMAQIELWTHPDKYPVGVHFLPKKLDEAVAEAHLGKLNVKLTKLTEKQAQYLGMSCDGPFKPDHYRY

[3] = test system: E6SM; assay: Minimum inhibitory concentration required to effect a microscopically visible change of cell morphology in human embryonic skin-muscle (E6SM) cell culture.; assay type: functional; parameters: unit not given here
[4] = test system: Human alphaherpesvirus 1; assay: microbe, parasite or virus in culture
[5] = test system: Vero; assay: cells; details: Chlorocebus sabaeus
[6] = test system: HEL; assay: (§1) 50% Cytostatic concentration required to inhibit human erythroleukemic (HEL) cell proliferation; assay type: functional; parameters: unit not given here
[7] = test system: Vero; assay: cells; details: Chlorocebus sabaeus; remark: listed apart in the source
[8] = test system: Vero; assay: cells; details: Chlorocebus sabaeus; remark: listed apart in the source
[9] = test system: Vaccinia virus
[10] = test system: Vero; assay: cells; details: Chlorocebus sabaeus; remark: listed apart in the source
[11] = test system: Human alphaherpesvirus 1; assay: microbe, parasite or virus in culture; remark: listed apart in the source
[12] = test system: Human betaherpesvirus 5; assay: microbe, parasite or virus in culture
[13] = test system: Human betaherpesvirus 5; assay: microbe, parasite or virus in culture; remark: listed apart in the source
[14] = test system: Human alphaherpesvirus 1; assay: microbe, parasite or virus in culture; remark: listed apart in the source
[15] = test system: Human alphaherpesvirus 1; assay: microbe, parasite or virus in culture; remark: listed apart in the source
[16] = test system: Vero; assay: cells; details: Chlorocebus sabaeus; remark: listed apart in the source
[17] = test system: HeLa; assay: Minimum inhibitory concentration required to effect a microscopically visible change of cell morphology in HeLa cell culture.; assay type: functional, Homo sapiens; parameters: unit not given here
[18] = test system: CCRF-CEM; assay: cells; details: Homo sapiens
[19] = test system: Vero; assay: Minimum inhibitory concentration required to effect a microscopically visible change of cell morphology in Vero cell culture.; assay type: functional, Chlorocebus sabaeus; parameters: unit not given here
[20] = test system: Vero; assay: cells; details: Chlorocebus sabaeus; remark: listed apart in the source
[21] = test system: HeLa; assay: cells; details: Homo sapiens
[22] = test system: Human alphaherpesvirus 2; assay: microbe, parasite or virus in culture
[23] = test system: Human alphaherpesvirus 1; assay: microbe, parasite or virus in culture; remark: listed apart in the source
[24] = test system: HeLa; assay: cells; details: Homo sapiens; remark: listed apart in the source
[25] = test system: Human alphaherpesvirus 1; assay: microbe, parasite or virus in culture; remark: listed apart in the source
[26] = test system: MDCK; assay type: functional, Canis lupus familiaris; parameters: unit not given here
[27] = test system: MDCK; assay: cells; details: Canis lupus familiaris
[28] = test system: L1210; assay: cells; details: Mus musculus
[29] = test system: MOLT-4; assay: cells; details: Homo sapiens
[30] = test system: MDCK; assay: cells; details: Canis lupus familiaris; remark: listed apart in the source
[31] = test system: Respiratory syncytial virus; assay: microbe, parasite or virus in culture; details: human respiratory syncytial virus, HeLa
[32] = test system: HEL; assay: as §1; assay type: functional
[33] = test system: FM3A; assay: cells; details: Mus musculus

SMILES: Nc1ncnc2c1ncn2[C@@H]1O[C@@H](C=NO)[C@@H](O)[C@H]1O
- Ki [1]: 224 nM
- k2 [2]: 0.13 min⁻¹

SMILES: O=c1[nH]c(=O)n([C@H]2C[C@H](O)[C@@H](CO)O2)cc1/C=C/Br [BRIVUDINE]
- MIC [3]: >400
- EC50 [4]: 0.04 µg/mL (≈ 0.12 µM)
- EC50 [5]: > 400 µg/mL
- CC50 [6]: >40
- EC50 [7]: > 400 µg/mL
- EC50 [8]: > 400 µg/mL
- EC50 [9]: 0.7 µg/mL (≈ 2.1 µM)
- EC50 [10]: > 400 µg/mL
- EC50 [11]: 10 µg/mL (≈ 30 µM)
- EC50 [12]: > 40 µg/mL
- EC50 [13]: > 40 µg/mL
- EC50 [14]: > 400 µg/mL
- EC50 [15]: > 400 µg/mL
- EC50 [16]: > 400 µg/mL

SMILES: Nc1ncnc2c1ncn2[C@@H]1O[C@H](C=NO)[C@@H](O)[C@H]1O
- MIC [3]: 7
- EC50 [4]: > 4 µg/mL
- EC50 [5]: > 1 µg/mL
- MIC [17]: >4
- Ki [1]: 670 nM
- IC50 [18]: 2.9 µg/mL (≈ 10.3 µM)
- EC50 [7]: > 0.4 µg/mL
- EC50 [8]: > 0.4 µg/mL
- EC50 [9]: > 4 µg/mL
- EC50 [10]: > 1 µg/mL
- MIC [19]: >1
- EC50 [20]: > 0.4 µg/mL
- EC50 [12]: 0.3 µg/mL (≈ 1.07 µM)
- EC50 [21]: > 40 µg/mL
- EC50 [22]: > 4 µg/mL
- EC50 [13]: 0.25 µg/mL (≈ 0.892 µM)
- EC50 [23]: > 4 µg/mL
- EC50 [24]: > 4 µg/mL
- EC50 [25]: > 4 µg/mL
- MIC [26]: 0.8
- EC50 [27]: 0.8 µg/mL (≈ 2.85 µM)
- IC50 [28]: 1.8 µg/mL (≈ 6.42 µM)
- k2 [2]: 0.16 min⁻¹
- IC50 [29]: 5.4 µg/mL (≈ 19.3 µM)
- EC50 [30]: > 0.8 µg/mL
- EC50 [31]: < 4 µg/mL
- EC50 [16]: > 1 µg/mL
- CC50 [32]: 0.7
- IC50 [33]: 2.3 µg/mL (≈ 8.21 µM)

SMILES: Nc1ncnc2c1ncn2C[C@H](O)CO [(S)-DHPA]
- MIC [3]: >400
- EC50 [4]: > 400 µg/mL
- EC50 [5]: 70 µg/mL (≈ 335 µM)
- EC50 [7]: > 400 µg/mL
- EC50 [8]: > 400 µg/mL
- EC50 [9]: 20 µg/mL (≈ 95.6 µM)
- EC50 [10]: 70 µg/mL (≈ 335 µM)
- EC50 [22]: > 400 µg/mL
- EC50 [23]: > 40 µg/mL
- EC50 [25]: > 400 µg/mL
- EC50 [16]: 20 µg/mL (≈ 95.6 µM)

SMILES: Nc1ncnc2c1ncn2[C@@H]1O[C@@H](C=O)[C@@H](O)[C@H]1O
- Ki [1]: 43 nM
- k2 [2]: 0.22 min⁻¹

SMILES: CCO/N=C/[C@H]1OC(n2cnc3c(N)ncnc32)[C@H](O)[C@@H]1O (stereo partly drawn)
- MIC [3]: >200
- EC50 [4]: > 200 µg/mL
- EC50 [5]: > 100 µg/mL
- MIC [17]: >200
- Ki [1]: 111 nM
- IC50 [18]: > 500 µg/mL
- EC50 [7]: > 100 µg/mL
- EC50 [8]: > 100 µg/mL
- EC50 [9]: 100 µg/mL (≈ 324 µM)
- EC50 [10]: > 100 µg/mL
- MIC [19]: >200
- EC50 [20]: > 100 µg/mL
- EC50 [12]: > 4 µg/mL
- EC50 [21]: > 200 µg/mL
- EC50 [22]: > 200 µg/mL
- EC50 [13]: > 10 µg/mL
- EC50 [23]: > 200 µg/mL
- EC50 [24]: > 200 µg/mL
- EC50 [25]: > 200 µg/mL
- MIC [26]: 4
- EC50 [27]: 0.8 µg/mL (≈ 2.59 µM)
- IC50 [28]: 295 µg/mL (≈ 957 µM)
- k2 [2]: 0.037 min⁻¹
- IC50 [29]: > 500 µg/mL
- EC50 [30]: 1.2 µg/mL (≈ 3.89 µM)
- EC50 [31]: > 200 µg/mL
- EC50 [16]: > 200 µg/mL
- CC50 [32]: >50
- IC50 [33]: > 500 µg/mL

SMILES: Nc1ncnc2c1ncn2[C@@H]1O[C@H](C=NO)[C@@H](O)[C@@H]1O
- MIC [3]: >200
- EC50 [4]: 70 µg/mL (≈ 250 µM)
- EC50 [5]: > 40 µg/mL
- IC50 [18]: 15 µg/mL (≈ 53.5 µM)
- EC50 [7]: > 40 µg/mL
- EC50 [8]: > 40 µg/mL
- EC50 [9]: 20 µg/mL (≈ 71.4 µM)
- EC50 [10]: > 40 µg/mL
- EC50 [12]: > 10 µg/mL
- EC50 [22]: > 100 µg/mL
- EC50 [13]: > 10 µg/mL
- EC50 [23]: 70 µg/mL (≈ 250 µM)
- EC50 [25]: > 100 µg/mL
- IC50 [28]: 10.5 µg/mL (≈ 37.5 µM)
- IC50 [29]: 16.4 µg/mL (≈ 58.5 µM)
- EC50 [16]: > 100 µg/mL
- CC50 [32]: 34
- IC50 [33]: 12.7 µg/mL (≈ 45.3 µM)

SMILES: Nc1ncnc2c1ncn2C1OC(/C=N/O)CC1O (stereo not drawn)
- MIC [3]: >400
- EC50 [4]: > 400 µg/mL
- EC50 [5]: 300 µg/mL (≈ 1140 µM)
- IC50 [18]: 185 µg/mL (≈ 700 µM)
- CC50 [6]: >50
- EC50 [7]: > 400 µg/mL
- EC50 [8]: > 400 µg/mL
- EC50 [9]: 300 µg/mL (≈ 1140 µM)
- EC50 [10]: > 400 µg/mL
- EC50 [12]: 40 µg/mL (≈ 151 µM)
- EC50 [22]: > 400 µg/mL
- EC50 [13]: 10 µg/mL (≈ 37.8 µM)
- EC50 [23]: > 400 µg/mL
- EC50 [25]: > 400 µg/mL
- IC50 [28]: 180 µg/mL (≈ 681 µM)
- IC50 [29]: > 200 µg/mL
- EC50 [16]: > 400 µg/mL
- IC50 [33]: > 200 µg/mL
